The results in this text go back to the NIST ThermoML archive (doi:10.1016/j.tca.2012.07.014).

For the series the following is noted: Crystal; visual observation.

Numbers after ± are expanded uncertainties.

For the compound `CO[C@@]12[C@H](COC(N)=O)C3=C(C(=O)C(C)=C(N)C3=O)N1C[C@@H]1N[C@@H]12` [ametycine], the Normal melting temperature was determined as 360.00 ± 1 °C.
